# Target: GABA-A receptor; anion channel
# Assay: Binding affinity against GABA-A benzodiazepine receptor
# Format: protein-complex assay
row,SMILES,Ki [nM]
1,COc1ccc2oc(N3C(=O)NC4CCCCCC43)nc2c1 (stereo not given),25
2,COc1ccc2nc(-n3c(O)nc4c3CCCC4)oc2c1,239
3,Oc1nc2c(n1-c1nc3ccc(F)c(F)c3o1)CCCC2,21
4,COc1ccc2nc(N3C(=O)NC4CCCCCC43)oc2c1 (stereo not given),254
5,Cc1ccc2nc(N3C(=O)NC4CCCCCC43)oc2c1 (stereo not given),158
6,Oc1nc2ccccc2n1-c1nc2ccccc2s1,> 10000
7,COc1ccc2oc(-n3c(O)nc4c3CCCC4)nc2c1,81
8,Oc1nc2ccccc2n1-c1nc2ccc(F)cc2o1,89
9,Oc1nc2ccccc2n1-c1nc2cc(F)ccc2o1,162
10,Oc1nc2ccccc2c2nc(-c3ccccc3)nn12,4
11,Cc1ccc2nc(-n3c(O)nc4ccccc43)oc2c1,303
12,Oc1nc2ccc(F)cc2n1-c1nc2cccc(F)c2o1,15
13,Cc1ccc2oc(N3C(=O)NC4CCCCCC43)nc2c1 (stereo not given),15
14,Oc1nc2ccccc2n1-c1nc2ccccc2o1,54
15,O=C1NC2CCCCCC2N1c1nc2c(F)cc(F)cc2o1 (stereo not given),65
16,Oc1nc2c(n1-c1nc3cccc(F)c3o1)CCCC2,52
17,Oc1nc2ccccc2n1-c1nc2ccc(F)c(F)c2o1,20
18,Oc1nc2cc(F)ccc2n1-c1nc2ccccc2o1,32
19,O=C1NC2CCCCCC2N1c1nc2ccccc2o1 (stereo not given),8
20,Oc1nc2c(n1-c1nc3ccccc3o1)CCCC2,56

row,SMILES,Ki [nM]
1,Oc1nc2ccc(F)cc2n1-c1nc2ccccc2o1,58
2,Oc1nc2ccccc2n1-c1nc2cccc(F)c2o1,39
3,O=C1NC2CCCCCC2N1c1nc2cc(F)ccc2o1 (stereo not given),5
4,O=C1NC2CCCCCC2N1c1nc2ncccc2o1 (stereo not given),137
5,O=C1NC2CCCCCC2N1c1nc2ccc(F)cc2o1 (stereo not given),5
6,Oc1nc2c(n1-c1nc3cc(F)ccc3o1)CCCC2,26
7,O=C1NC2CCCCCC2N1c1nc2cccc(F)c2o1 (stereo not given),5
8,Oc1nc2cc(F)ccc2n1-c1nc2ccc(F)cc2o1,25
9,Cn1c(=O)n(-c2nc3ccccc3o2)c2ccccc21,> 10000
10,O=C1NC2CCCCCC2N1c1nc2cc(F)c(F)cc2o1 (stereo not given),87
11,Oc1nc2c(n1-c1nc3ccc(F)cc3o1)CCCC2,47
12,O=C1NC2CCCCCC2N1c1nc2ccc(F)c(F)c2o1 (stereo not given),3
13,O=C1NC2CCCCC2N1c1nc2ncccc2o1 (stereo not given),> 1000
14,Oc1nc2cc(F)ccc2n1-c1nc2cccc(F)c2o1,14
15,COc1ccc2oc(-n3c(O)nc4ccccc43)nc2c1,91
16,O=C1NC2CCCCCC2N1c1nc2cc(F)cc(F)c2o1 (stereo not given),7
17,Oc1nc2ccccc2n1-c1nc2ncccc2o1,44
18,COc1ccc2nc(-n3c(O)nc4ccccc43)oc2c1,610
19,Oc1nc2cccnc2n1-c1nc2ccccc2o1,723

# Target: GABA-A receptor; anion channel
# Assay: Inhibition of GABA-A benzodiazepine receptor
# Format: protein-complex assay
row,SMILES,IC50 [nM]
1,O=C1NC2CCCCCC2N1c1nc2cc(Cl)ccc2o1 (stereo not given),140
